Broadly, the solubility is the concentration that dissolves in the medium under given conditions.

SMILES strings stand for the structures. Values after ≈ are worked out from the molar mass of the structure shown. Values joined by “and” are separate entries in the source; they are usually repeats but may differ in a detail not shown here. Identical values can stand only once. Counter-ions that a name gives are not always drawn.

Data set [1] can be described thus: Evaluation of conversion rate to active form in human plasma. Conditions: human, 10 umol/L. In kind it is in vitro ADME. As to the method: (§1) The ratio of decrease of a test compound and the conversion ratio to a corresponding active form (2-acetylthieno[3,2-f][1]benzofuran-4,8-dione) in human plasma and CD1 mouse plasma were measured for Example 1.
(§2) The test compounds were incubated at 37° C. at a concentration of 10 umol/L in human plasma (cat. no. 12250210, Cosmo Bio) and CD1 mouse plasma (cat. no. AP3054, KAC) and retrieved for a given time (0, 5, 10, 30, 60, and 120 minutes) and deproteinized, then analyzed by LC-MS. Acetonitrile comprising each of 10% quantity of 1 mol/L hydrochloric acid, 1% quantity of 46% citric acid, and phenytoin as an internal standard was used for deproteinization.
(§3) LC-MS measurement conditions were the following.
(§4) The yield of the Examples compounds and active form 2-acetylthieno[3,2-f][1]benzofuran-4,8-dione is calculated with each of the peak area of the Example compounds at 0 minutes and the peak area upon dissolution of 2-acetylthieno[3,2-f][1]benzofuran-4,8-dione at 100 umol/L as 100%. The yield is denoted in terms of %.
(§5) In the same manner as Example 1, the conversion ratio to an active form was measured for each of the various test compounds in human plasma and CD1 mouse plasma, with incubation time as 120 minutes. It was confirmed that the series of compounds of the invention was converted to an active form with a small interspecies difference in human plasma and CD1 mouse plasma.
(§6) The yield of the active forms is calculated with the each peak area upon dissolution of the generated active form at 100 umol/L as 100%. The yield is denoted in terms of %.

Data set [2] is described as follows: Evaluation of conversion rate to active form in CD1 mouse plasma. In kind it is in vitro ADME. Conditions: CD1, mouse, 10 umol/L. As to the method:
as §1, §2, §3, §4, §5, §6

A further data set is described as follows: physchem. Conditions: thermodynamic from solid.
The conditions of data set [3]: pH 2.
Description: (§7) The solubility of the water-soluble prodrugs described in the Examples and the Reference Examples was measured. […] The filtrate was measured by HPLC.
Data set [4] can be described thus: Solution stability test (residual ratio and generation of active form in buffers of pH 2.0 to 9.0). The arrangement: Rate of generation of active form after 24 hours in buffer with pH of 7.4: tested at 25 µM. In kind it is physicochemical. Conditions: for Residual ratio: 25 umol/L. The method, then:
The test compounds were incubated at 25° C. at a concentration of 25 umol/L in a buffer prepared to have a pH of 2.0, 3.0, 5.0, 7.4, and 9.0. The compounds were measured by HPLC after 0, 3, 6, 9, 12, and 24 hours.
The buffers used at each pH are the following. • pH 2.0: 50 mmol/L glycine buffer • pH 3.0: 50 mmol/L citrate buffer • pH 5.0: 50 mmol/L citrate buffer • pH 7.4: 50 mmol/L phosphate buffer • pH 9.0: 50 mmol/L glycine buffer
The measurement conditions for HPLC are the following.
The yield of the Example and Reference Example compounds and active forms is calculated with each of the peak area of the Example and Reference Example compounds at 0 minutes and the peak area upon dissolution of the corresponding active form at 100 umol/L as 100%. The yield is denoted in terms of %

Description for physchem: as §7

`CC(=O)c1cc2c(o1)C(=O)c1sccc1C2=O` [2-acetylthieno[3,2-f][1]benzofuran-4,8-dione, reference compound]: the “Measurement value % of active form (conversion ratio to active form)” value in data set [1] (0 min) came out at 0.0%; in data set [1] (5 min), 36.4%; in data set [1] (10 min), 51.6%; in data set [1] (30 min), 83.4%; in data set [1] (60 min), 89.7%; in data set [1] (120 min) it was 91.3%. Moreover, the “Measurement value % of active form (conversion ratio to active form)” value stood at 0.0% in data set [2] (0 min); 21.1% in data set [2] (5 min); 36.7% in data set [2] (10 min); 70.8% in data set [2] (30 min); 73.8% in data set [2] (60 min); 71.4% in data set [2] (120 min). In the data set “physchem” (50 mmol/L glycine buffer, pH 2, aqueous buffer), this compound gave a solubility at 24 h of 4 µg/mL (≈ 16.2 µM).

On to `C[C@H]1COC2=C1C(=O)C(=O)c1c2ccc2c1CCCC2(C)C` [(1R)-1,6,6-trimethyl-1,2,6,7,8,9-hexahydrophenanthro[1,2-b]furan-10,11-dione], for which, in data set [3], the Solubility in buffer result is given as “Below”.

As for `CC(=O)c1cc2c(O)c3c(O)cccc3c(OC(=O)NCCCN)c2o1` [Reference Example 9, 2-Acetyl-4,5-dihydroxynaphtho[2,3-b]furan-9-yl(3-aminopropyl)carbamate hydrochloride], the Residual ratio worked out at 100% in data set [4] (pH2.0 buffer, 25° C., 0 hr); 96.9% in data set [4] (pH2.0 buffer, 25° C., 3 hr); 92.9% in data set [4] (pH2.0 buffer, 25° C., 6 hr); 85.7% in data set [4] (pH2.0 buffer, 25° C., 9 hr); 85.2% in data set [4] (pH2.0 buffer, 25° C., 12 hr); 101% in data set [4] (pH3.0 buffer, 25° C., 0 hr). Further, the Residual ratio in data set [4] (pH3.0 buffer, 25° C., 3 hr) was found to be 100%; in data set [4] (pH3.0 buffer, 25° C., 6 hr) it was 100%; in data set [4] (pH3.0 buffer, 25° C., 9 hr), 99.8%; in data set [4] (pH3.0 buffer, 25° C., 12 hr), 99.5%; in data set [4] (pH3.0 buffer, 25° C., 24 hr), 98.4%; in data set [4] (pH5.0 buffer, 25° C., 0 hr), 102%. Moreover, the Residual ratio in data set [4] (pH5.0 buffer, 25° C., 3 hr) was 104%; in data set [4] (pH5.0 buffer, 25° C., 6 hr), 99.7%; in data set [4] (pH5.0 buffer, 25° C., 9 hr), 93.8%; in data set [4] (pH5.0 buffer, 25° C., 12 hr), 87.4%; in data set [4] (pH5.0 buffer, 25° C., 24 hr, hydrochloride), 67% and 67.1%; in data set [4] (pH7.4 buffer, 25° C., 0 hr), 103%. Further, the Residual ratio in data set [4] (pH7.4 buffer, 25° C., 3 hr) is 83.0%; in data set [4] (pH7.4 buffer, 25° C., 6 hr) it was 67.1%; in data set [4] (pH7.4 buffer, 25° C., 9 hr), 52.7%; in data set [4] (pH7.4 buffer, 25° C., 12 hr), 41.1%; in data set [4] (pH7.4 buffer, 25° C., 24 hr, hydrochloride) it was 26% and 25.5%; in data set [4] (pH9.0 buffer, 25° C., 0 hr), 75.3%. Moreover, the Residual ratio in data set [4] (pH9.0 buffer, 25° C., 3 hr) amounted to 13.7%; in data set [4] (pH9.0 buffer, 25° C., 6 hr, hydrochloride) it was 0%; in data set [4] (pH9.0 buffer, 25° C., 9 hr), 0.0%; in data set [4] (pH9.0 buffer, 25° C., 12 hr) it was 0.0%; in data set [4] (pH9.0 buffer, 25° C., 24 hr) it was 0.0%. Also, the “Degradation behaviour in buffers (in words)” value in data set [4] (pH 2.0 to 9.0) was “pH dependent and chemical degradation progressed”. Further, the “Rate of generation of active form after 24 hours in buffer with pH of 7.4” value in data set [4] (pH 7.4 buffer, 24 hours, 25° C.) came to 71%. The “Stability in solution (in words)” value in data set [4] (pH of 2.0, 25° C.) is listed as “sufficient stability”; in data set [4] (pH of 3.0, 25° C.), “sufficient stability”. Besides, the solubility in “physchem” (pH 3, aqueous buffer) was above 10000 µg/mL.
